Results published in paper PMC10620772, “Design, synthesis, and biological evaluation of new pyrimidine-5-carbonitrile derivatives as novel anti-cancer, dual EGFR^WT/COX-2 inhibitors with docking studies” (RSC Advances, 2023).
Where “and” joins values, the source holds several entries; their conditions need not be identical. Equal entries are not always repeated. Entries after “also recorded” stand apart in the source; their conditions may differ. Where two headings read alike, the source gives them in different places.

Columns and labels:
Type in all cases: cell-based, human
PC-3 = assay: NCI60 antitumor screening
HOP-92 = assay: NCI60 antitumor screening
KM12 = assay: NCI60 antitumor screening
M14 = assay: NCI60 antitumor screening
ovarian cancer subpanel = assay: NCI60 five-dose, subpanel VI
Description: (§1) (2) The molar concentration of the compound responsible for total growth inhibition, also known as total growth inhibition (TGI).
(§2) Regarding subpanel selectivity toward certain cancer type, the method of determining a compound's selectivity index is to divide the full panel MG-MID (μM) value by each single subpanel. Values above six indicate high selectivity against the subpanel; moderate selectivity is denoted by values between three and six. Conversely, compounds are termed nonselective if their selectivity is less than three.[30,37]

DU-145 = assay: NCI60 antitumor screening
HCT-116 = assay: NCI60 antitumor screening
melanoma subpanel = assay: NCI60 five-dose, subpanel V
Description: as §1, §2

MDA-MB-231/ATCC = assay: NCI60 antitumor screening; settings: Homo sapiens; 10 μM single dose; MDA-MB-231/ATCC (breast cancer); read-out: growth inhibition percent (GI%)
COLO 205 = assay: NCI60 antitumor screening
T-47D = assay: NCI60 antitumor screening
NCI60 cell lines panel = assay: NCI60 antitumor screening, full panel
Method in brief: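 Single-concentration screen at 10 μM across the NCI60 panel (leukaemia, NSCLC, colon, CNS, melanoma, ovarian, renal, prostate, breast). Results are expressed as percent growth inhibition (GI%) of treated lines.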

MOLT-4 = assay: NCI60 antitumor screening
OVCAR-3 = assay: NCI60 antitumor screening
EKVX = assay: NCI60 antitumor screening
SF-295 = assay: NCI60 antitumor screening
SN12C = assay: NCI60 antitumor screening
NCI-H23 = assay: NCI60 antitumor screening
BT-549 = assay: NCI60 antitumor screening
SK-MEL-28 = assay: NCI60 antitumor screening
HS 578T = assay: NCI60 antitumor screening
prostate cancer subpanel = assay: NCI60 five-dose, subpanel VIII
Description: as §1, §2

SR = assay: NCI60 antitumor screening
SK-MEL-2 = assay: NCI60 antitumor screening; settings: Homo sapiens; 10 μM single dose; SK-MEL-2 (melanoma); read-out: growth inhibition percent (GI%)
UACC-257 = assay: NCI60 antitumor screening
SK-OV-3 = assay: NCI60 antitumor screening
[1] = full panel MG-MID / subpanel VI
[2] = full panel MG-MID / subpanel VIII

N#Cc1c(-c2ccc(F)cc2)nc(SCc2ccccc2)nc1N1CCNCC1 [4e, 2-(Benzylthio)-4-(4-fluorophenyl)-6-(piperazin-1-yl) pyrimidine-5-carbonitrile]
GI50 (PC-3; Homo sapiens, PC-3, five-dose): 11.8 µM
CC50 (PC-3; Homo sapiens, PC-3, five-dose, read-out: LC50 (the source's name)): 56.4 µM
inhibition at 10 µM (PC-3; Homo sapiens, 10 μM single dose, PC-3 (prostate cancer), read-out: growth inhibition percent (GI%)): > 100%
TGI (PC-3; five-dose): 25.80 µM
GI50 (HOP-92; Homo sapiens, HOP-92, five-dose): 4.2 µM
CC50 (HOP-92; Homo sapiens, HOP-92, five-dose, read-out: LC50 (the source's name)): 48.4 µM
inhibition at 10 µM (HOP-92; Homo sapiens, 10 μM single dose, HOP-92 (non-small cell lung cancer), read-out: growth inhibition percent (GI%)): > 100%
TGI (HOP-92; five-dose): 18.10 µM
GI50 (KM12; Homo sapiens, KM12, five-dose): 17.1 µM
CC50 (KM12; Homo sapiens, KM12, five-dose, read-out: LC50 (the source's name)): 63.1 µM
inhibition at 10 µM (KM12; Homo sapiens, 10 μM single dose, KM12 (colon cancer), read-out: growth inhibition percent (GI%)): > 100%
TGI (KM12; five-dose): 32.80 µM
GI50 (M14; Homo sapiens, M14, five-dose): 12 µM
CC50 (M14; Homo sapiens, M14, five-dose, read-out: LC50 (the source's name)): 51.4 µM
inhibition at 10 µM (M14; Homo sapiens, 10 μM single dose, M14 (melanoma), read-out: growth inhibition percent (GI%)): > 100%
TGI (M14; five-dose): 24.80 µM
GI50 (ovarian cancer subpanel; Homo sapiens, subpanel VI, read-out: MG-MID (GI50)): 13.2 µM
Selectivity index (GI50) (ovarian cancer subpanel; [1]): 0.81
Selectivity index (TGI) (ovarian cancer subpanel; [1]): 0.83
MG-MID (TGI) (ovarian cancer subpanel; subpanel VI): 28.35 µM
GI50 (DU-145; Homo sapiens, DU-145, five-dose): 15 µM
CC50 (DU-145; Homo sapiens, DU-145, five-dose, read-out: LC50 (the source's name)): 56 µM
inhibition at 10 µM (DU-145; Homo sapiens, DU-145, read-out: growth inhibition percent (GI%)): > 100%
TGI (DU-145; five-dose): 29.00 µM
GI50 (HCT-116; Homo sapiens, HCT-116, five-dose): 3.51 µM
CC50 (HCT-116; Homo sapiens, HCT-116, five-dose, read-out: LC50 (the source's name)): 38.1 µM
inhibition at 10 µM (HCT-116; Homo sapiens, 10 μM single dose, HCT-116 (colon cancer), read-out: growth inhibition percent (GI%)): > 100%
TGI (HCT-116; five-dose): 11.60 µM
GI50 (melanoma subpanel; Homo sapiens, subpanel V, read-out: MG-MID (GI50)): 13 µM
Selectivity index (GI50) (melanoma subpanel; full panel MG-MID / subpanel V): 0.82
Selectivity index (TGI) (melanoma subpanel; full panel MG-MID / subpanel V): 0.93
MG-MID (TGI) (melanoma subpanel; subpanel V): 25.21 µM
inhibition at 10 µM (MDA-MB-231/ATCC): > 100%
IC50 (COLO 205; Homo sapiens, COLO 205): 1660 nM
GI50 (COLO 205; Homo sapiens, COLO 205, five-dose): 1660 nM
CC50 (COLO 205; Homo sapiens, COLO 205, five-dose, read-out: LC50 (the source's name)): 6.04 µM
inhibition at 10 µM (COLO 205; Homo sapiens, 10 μM single dose, COLO 205 (colon cancer), read-out: growth inhibition percent (GI%)): > 100%
TGI (COLO 205; five-dose): 3.17 µM
inhibition at 10 µM (T-47D; Homo sapiens, T47D, 10 μM single dose, T-47D (breast cancer), read-out: growth inhibition percent (GI%)): > 100%
GI50 (T-47D; Homo sapiens, T47D, five-dose): 10.1 µM
CC50 (T-47D; Homo sapiens, T47D, five-dose, read-out: LC50 (the source's name)): 61 µM
TGI (T-47D; five-dose): 24.80 µM
One-dose activity over the NCI60 panel (NCI60 cell lines panel; 10 μM): lethal effect to all cancer subpanels; also recorded: Lethal to all NCI60 cell lines
inhibition at 10 µM (NCI60 cell lines panel; Homo sapiens, 10 μM single dose, mean over NCI60 cell lines, read-out: Mean growth inhibition percent (GI%)): > 100%
GI50 (NCI60 cell lines panel; Homo sapiens, average of all cell lines, read-out: Full panel MG-MID (GI50)): 10.7 µM
GI50 (NCI60 cell lines panel; Homo sapiens, five-dose, read-out: GI50 range, leukemia and colon cancer cell lines): 1.77 to 17.1 µM
CC50 (NCI60 cell lines panel; Homo sapiens, five-dose, read-out: LC50 range over examined cell lines): 5 to 69 µM
Full panel MG-MID (TGI) (NCI60 cell lines panel; average of all cell lines): 23.60 μM and 23.60 ^e μM
GI50 (MOLT-4; Homo sapiens, MOLT-4, five-dose): 7.07 µM
CC50 (MOLT-4; Homo sapiens, MOLT-4, five-dose, read-out: LC50 (the source's name)): 52.7 µM
inhibition at 10 µM (MOLT-4; Homo sapiens, 10 μM single dose, MOLT-4 (leukaemia), read-out: growth inhibition percent (GI%)): > 100%
TGI (MOLT-4; five-dose): 21.20 µM
GI50 (OVCAR-3; Homo sapiens, OVCAR-3, five-dose): 14.3 µM
CC50 (OVCAR-3; Homo sapiens, OVCAR-3, five-dose, read-out: LC50 (the source's name)): 59.1 µM
inhibition at 10 µM (OVCAR-3; Homo sapiens, 10 μM single dose, OVCAR-3 (ovarian cancer), read-out: growth inhibition percent (GI%)): > 100%
TGI (OVCAR-3; five-dose): 29.10 µM
GI50 (EKVX; Homo sapiens, EKVX, five-dose): 12 µM
LC50 (EKVX; Homo sapiens, EKVX, five-dose): 51 µM
inhibition at 10 µM (EKVX; Homo sapiens, 10 μM single dose, EKVX (non-small cell lung cancer), read-out: growth inhibition percent (GI%)): > 100%
TGI (EKVX; five-dose): 24.80 µM
GI50 (SF-295; Homo sapiens, SF-295, five-dose): 15.8 µM
CC50 (SF-295; Homo sapiens, SF-295, five-dose, read-out: LC50 (the source's name)): 57.5 µM
inhibition at 10 µM (SF-295; Homo sapiens, 10 μM single dose, SF-295 (CNS cancer), read-out: growth inhibition percent (GI%)): > 100%
TGI (SF-295; five-dose): 30.10 µM
GI50 (SN12C; Homo sapiens, SN12C, five-dose): 13.8 µM
CC50 (SN12C; Homo sapiens, SN12C, five-dose, read-out: LC50 (the source's name)): 53.8 µM
inhibition at 10 µM (SN12C; Homo sapiens, 10 μM single dose, SN12C (renal cancer), read-out: growth inhibition percent (GI%)): > 100%
TGI (SN12C; five-dose): 27.20 µM
GI50 (NCI-H23; Homo sapiens, NCI-H23, five-dose): 15.1 µM
CC50 (NCI-H23; Homo sapiens, NCI-H23, five-dose, read-out: LC50 (the source's name)): 56.5 µM
inhibition at 10 µM (NCI-H23; Homo sapiens, 10 μM single dose, NCI-H23 (non-small cell lung cancer), read-out: growth inhibition percent (GI%)): > 100%
TGI (NCI-H23; five-dose): 29.30 µM
GI50 (BT-549; Homo sapiens, BT-549, five-dose): 13 µM
CC50 (BT-549; Homo sapiens, BT-549, five-dose, read-out: LC50 (the source's name)): 53.6 µM
inhibition at 10 µM (BT-549; Homo sapiens, 10 μM single dose, BT-549 (breast cancer), read-out: growth inhibition percent (GI%)): > 100%
TGI (BT-549; five-dose): 26.40 µM
GI50 (SK-MEL-28; Homo sapiens, SK-MEL-28, five-dose): 16.3 µM
CC50 (SK-MEL-28; Homo sapiens, SK-MEL-28, five-dose, read-out: LC50 (the source's name)): 56.3 µM
inhibition at 10 µM (SK-MEL-28; Homo sapiens, 10 μM single dose, SK-MEL-28 (melanoma), read-out: growth inhibition percent (GI%)): > 100%
TGI (SK-MEL-28; five-dose): 30.30 µM
GI50 (HS 578T; Homo sapiens, Hs-578T, five-dose): 14.1 µM
CC50 (HS 578T; Homo sapiens, Hs-578T, five-dose, read-out: LC50 (the source's name)): 72.7 µM
inhibition at 10 µM (HS 578T; Homo sapiens, 10 μM single dose, HS 578T (breast cancer), read-out: growth inhibition percent (GI%)): > 100%
TGI (HS 578T; five-dose): 32.00 µM
GI50 (prostate cancer subpanel; Homo sapiens, subpanel VIII, read-out: MG-MID (GI50)): 13.4 µM
Selectivity index (GI50) (prostate cancer subpanel; [2]): 0.79
Selectivity index (TGI) (prostate cancer subpanel; [2]): 0.86
MG-MID (TGI) (prostate cancer subpanel; subpanel VIII): 27.40 µM
GI50 (SR; Homo sapiens, SR, five-dose): 1920 nM
CC50 (SR; Homo sapiens, SR, five-dose, read-out: LC50 (the source's name)): 13.8 µM
inhibition at 10 µM (SR; Homo sapiens, 10 μM single dose, SR (leukaemia), read-out: growth inhibition percent (GI%)): > 100%
TGI (SR; five-dose): 4.61 µM
inhibition at 10 µM (SK-MEL-2): > 100%
GI50 (UACC-257; Homo sapiens, UACC-257, five-dose): 13.1 µM
CC50 (UACC-257; Homo sapiens, UACC-257, five-dose, read-out: LC50 (the source's name)): 52.6 µM
inhibition at 10 µM (UACC-257; Homo sapiens, 10 μM single dose, UACC-257 (melanoma), read-out: growth inhibition percent (GI%)): > 100%
TGI (UACC-257; five-dose): 26.20 µM
GI50 (SK-OV-3; Homo sapiens, SK-OV-3, five-dose): 16 µM
CC50 (SK-OV-3; Homo sapiens, SK-OV-3, five-dose, read-out: LC50 (the source's name)): 54.6 µM
inhibition at 10 µM (SK-OV-3; Homo sapiens, 10 μM single dose, SK-OV-3 (ovarian cancer), read-out: growth inhibition percent (GI%)): > 100%
TGI (SK-OV-3; five-dose): 29.50 µM
